Assay results published in patent US20180133190A1, “MONOACYLGLYCEROLS AND FAT-SOLUBLE NUTRIENTS FOR USE IN THE TREATMENT OF NUTRIENT DEFICIENCY FROM MALDIGESTION” (NESTEC S.A., priority 2013, published 2018).

Experiments:
[1] = lipid maldigestion or malabsorption rat model (XENICAL-induced): EPA level in red blood cell lipids; format: in vivo, rats
Method: The concept was tested in a lipid maldigestion or malabsorption rat model. The maldigestion or malabsorption condition was obtained using XENICAL® (ORLISTAT), a pancreatic and gastric lipases inhibitor (tetrahydrolipstatin; see FIG. 7). Rats were fed during 21 days with long-chain polyunsaturated fatty acid (LC-PUFA) supplements containing mainly eicosapentaenoic (EPA) acid. Fish oil was used as a source of triacylglycerols, and different EPA glycerides were evaluated. XENICAL® (ORLISTAT) was given at a level sufficient to decrease lipid absorption by 40%. A group receiving fish oil without XENICAL® (ORLISTAT) was used as a positive control. At different time intervals (D3, D7, […]), the fatty acid profiles of red blood cell and plasma lipids were determined. At the end of the experiment, the fatty acid profiles of different tissues were determined. The main objective was to follow the level of EPA in red blood cell and plasma lipids. The main comparison evaluated was the difference in EPA level between the group receiving EPA-containing sn-1(3) MAG in combination with XENICAL® (ORLISTAT) and the positive control group (fish oil+XENICAL® (ORLISTAT)). […] This comparison corroborates the validity of the model.

[2] = clinical study: delivery of EPA under lipid maldigestion conditions induced by XENICAL (ORLISTAT); format: in vivo, humans
Method: This clinical study compared the efficacy of sn-1(3) MAG and fish oil (TAG) in delivering EPA in humans under lipid maldigestion conditions induced by XENICAL® (ORLISTAT). The comparison was tested in volunteers having a BMI of 37-40 kg/m2 and treated with XENICAL® (ORLISTAT) to induce lipid maldigestion or not treated with XENICAL® (ORLISTAT). The primary objective was to assess accretion of EPA in erythrocytes over 21 days when consumed as fish oil (TAG) or sn-1(3) MAG. The secondary objectives were to assess accretion of EPA in plasma over 21 days and also to assess the pharmacokinetics of EPA after an acute dose either in the form of sn-1(3) MAG or TAG (AUC in chylomicrons over 10 hours postprandial).

SMILES | EPA incorporation in red blood cells, effect of lipase inhibitor ([1]; rats fed fish oil with vs without XENICAL (ORLISTAT), day 7, FIG. 2) | chronic effect: accretion of EPA in erythrocytes after 21 days ([2]; humans, with XENICAL (ORLISTAT), in comparison to fish oil and XENICAL, p=0.0001, FIG. 5) | chronic effect: accretion of EPA in plasma after 21 days ([2]; humans, with XENICAL (ORLISTAT), relative to fish oil and XENICAL, p=0.0003, FIG. 6) | carrier for EPA compared with fish oil (TAG) ([2]; obese subjects treated with XENICAL (ORLISTAT)) | incorporation of LC-PUFAs in tissue ([1]; rats, conditions of lipid maldigestion or malabsorption) | level of EPA incorporated in red blood cells vs fish oil group (without XENICAL) ([1]; rats, with XENICAL (ORLISTAT), day 7, FIG. 2) | level of EPA incorporated in red blood cells vs fish oil + XENICAL (ORLISTAT) group ([1]; rats, with XENICAL (ORLISTAT), day 7, all P values lower than 0.05, FIG. 2)
CCCCCCCCCCC[C@@H](C[C@@H]1OC(=O)[C@H]1CCCCCC)OC(=O)[C@H](CC(C)C)NC=O [XENICAL® (ORLISTAT), tetrahydrolipstatin, reference compound] | decreases EPA incorporation in red blood cells | – | – | – | – | – | –
CC/C=C\C/C=C\C/C=C\C/C=C\C/C=C\CCCC(=O)OCC(O)CO (stereo not shown) [sn-1(3) MAG that contained EPA, sn-1(3)-monoeicosapentaenoylglycerol] | – | statistically significant | statistically significant | better carrier for EPA than fish oil (TAG) | the incorporation in tissue is improved | even higher than the fish oil group | statistically higher
